The values that follow come from patent publication US20260199323A1, “LIGAND COMPOUNDS FOR E3 UBIQUITIN LIGASE, PROTEIN DEGRADERS DEVELOPED ON BASIS OF LIGAND COMPOUNDS, AND USES THEREOF” (GLUETACS THERAPEUTICS (SHANGHAI) CO., LTD., priority 2021, published 2026).

Holding throughout (type): cell-based, Human
Experiment [1] relates to SR. Kind of experiment: CCK-8 tumor cell proliferation, SR. The following applies: Homo sapiens; Table 15, ALK inhibitor based; SR; read-out: IC50 inhibiting proliferation of tumor cells, SR. The method in brief:
(§1)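 STR-authenticated, mycoplasma-negative cells were cultured at 37 °C with 5% CO2. One day after plating, they were treated with a 5-fold serial dilution of compound (10 points, highest 10 μM). CCK-8 was used to assess viability, giving IC50 values.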

Experiment [2] concerns MDA-MB-231. Kind of experiment: CCK-8 tumor cell proliferation, MDA-MB-231. As to conditions: Homo sapiens; Table 15, ALK inhibitor based; MDA-MB-231; read-out: IC50 inhibiting proliferation of tumor cells, MDA-MB-231. The method in brief:
as §1

Experiment [3] deals with PC-9. Description: CCK-8 tumor cell proliferation, PC-9. As to conditions: Homo sapiens; Table 15, ALK inhibitor based; PC-9; read-out: IC50 inhibiting proliferation of tumor cells, PC-9.
The test system of experiment [4] is NCI-H1975. Description: CCK-8 tumor cell proliferation, NCI-H1975. As to conditions: for IC50: Homo sapiens, Table 15, ALK inhibitor based, NCI-H1975, read-out: IC50 inhibiting proliferation of tumor cells, NCI-H1975; for IC50 for inhibiting the proliferation of tumor cells, H1975: Table 11, designed based on EGFR inhibitors. As for the experimental part:
(§2) The tumor cells used herein were cultured in a cell culture medium listed in table 4 at 37° C. in an incubator with 5% CO2. Prior to experimentation, all cells used were correctly identified by STR profiling, and tested negative for mycoplasma through routine screenings.
(§3) IC50 values of the compounds of the present disclosure (including the compounds in Tables 1 and 3, and compounds of examples) were measured using the Meilun Cell Counting Kit-8 kit from Dalian Meilun Biotech Co., Ltd. Assay details are as follows: tumor cells were seeded in a 96-well plate at a density listed in Table 5. After 24 h, 100 μL of the inoculated cells were treated with 0.5 μL of the compounds of the present disclosure (including the compounds in Tables 1 and 3, and compounds of examples) at 10 different successively decreasing concentrations (starting at the highest concentration of 10 μM; 5-fold serial dilutions). After the cells were treated with the compounds of the present disclosure for a period of time, the cell viability detection reagent was added to the culture medium for cell viability assessment according to the instructions provided with the CCK-8 kit. […] The growth inhibition of the compounds of the present disclosure on cells was plotted by Prism Graphpad software, and the IC50 values of the compounds of the present disclosure were calculated therefrom.

Experiment [5] relates to CCRF-CEM. Description: CCK-8 tumor cell proliferation, CCRF-CEM. Also on record: IC50 for inhibiting the proliferation of tumor cells, CCRF-CEM: scale not given here. The following applies: for IC50: Homo sapiens, Table 19, IRAK4 inhibitor based, CCRF-CEM, read-out: IC50 inhibiting proliferation of tumor cells, CCRF-CEM. An outline of the steps:
as §1

Experiment [6] concerns Vcap. Kind of experiment: CCK-8 tumor cell proliferation, Vcap. The following applies: Table 7, designed based on BTK inhibitors; 96 h. Here is the method:
as §2, §3

For experiment [7], the system named is CAL-62. Kind of experiment: CCK-8 tumor cell proliferation, CAL-62. Also on record: IC50 for inhibiting the proliferation of tumor cells, CAL-62: scale not given here. The following applies: for IC50 for inhibiting the proliferation of tumor cells, CAL-62: Table 11, designed based on EGFR inhibitors, 72 h; for IC50: Homo sapiens, Table 19, IRAK4 inhibitor based, CAL-62, read-out: IC50 inhibiting proliferation of tumor cells, CAL-62. An outline of the steps:
as §1

For experiment [8], the system named is LNcap. Description: CCK-8 tumor cell proliferation, LNcap. As to conditions: Homo sapiens; Table 19, IRAK4 inhibitor based; Lncap; read-out: IC50 inhibiting proliferation of tumor cells, Lncap. As for the experimental part: as §2, §3
For experiment [9], the system named is SW620. Description: CCK-8 tumor cell proliferation, SW620. As to conditions: Homo sapiens, SW-620; Table 19, IRAK4 inhibitor based; SW620; read-out: IC50 inhibiting proliferation of tumor cells, SW620. An outline of the steps: as §1
Experiment [10] deals with Jurkat. Kind of experiment: CCK-8 tumor cell proliferation, Jurkat. The following applies: Homo sapiens, Table 19, IRAK4 inhibitor based, read-out: IC50 inhibiting proliferation of tumor cells, Jurkat. The method in brief: as §1
The mark [11] stands for this setting: Table 7, designed based on BTK inhibitors, 96 h.

On to `C[C@@H](Oc1cc(-c2cnn(C3CCN(Cc4ccc5c(c4)CN(C4CCC(=O)NC4=O)C5=O)CC3)c2)cnc1N)c1c(Cl)ccc(F)c1Cl` (stereo partly drawn) [GT-02974, 3-(5-((4-(4-(6-amino-5-((R)-1-(2,6-dichloro-3-fluorophenyl)ethoxy)pyridin-3-yl)-1H-pyrazol-1-yl)piperidin-1-yl)methyl)-1-oxoisoindolin-2-yl)piperidine-2,6-dione], for which the IC50 lay within 50 to 100 nM in experiment [1], 1000 to 5000 nM in experiment [2], 1000 to 5000 nM in [3] and 1000 to 5000 nM in experiment [4].

For the compound `Nc1ncnc2c1c(-c1ccc(Oc3ccccc3)cc1)nn2C1CCN(Cc2cc(F)c3c(c2)CN(C2CCC(=O)NC2=O)C3=O)CC1` (stereo not shown) [GT-03473, 3-(5-((4-(4-amino-3-(4-phenoxyphenyl)-1H-pyrazolo[3,4-d]pyrimidin-1-yl)piperidin-1-yl)methyl)-7-fluoro-1-oxoisoindolin-2-yl)piperidine-2,6-dione], the “IC50 for inhibiting the proliferation of tumor cells, CCRF-CEM” value in experiment [5] (setting [11]) is “A+”. Further, the “IC50 for inhibiting the proliferation of tumor cells, Vcap” value in experiment [6] is recorded as “A+”. Moreover, the “IC50 for inhibiting the proliferation of tumor cells, NCI-H1975” value in experiment [4] (setting [11]) was “A+”.

For `Cc1cc(Nc2ncc(Cl)c(Nc3ccccc3S(=O)(=O)C(C)C)n2)c(OC(C)C)cc1N1CCC(N(C)Cc2ccc3c(c2)CN(C2CCC(=O)NC2=O)C3=O)CC1` (stereo not shown) [GT-03530, 3-(5-(((1-(4-((5-chloro-4-((2-(isopropylsulfonyl)phenyl)amino)pyrimidin-2-yl)amino)-5-isopropoxy-2-methylphenyl)piperidin-4-yl)(methyl)amino)methyl)-1-oxoisoindolin-2-yl)piperidine-2,6-dione], the IC50 in experiment [1] is below 50 nM; in [2] it was 500 to 1000 nM; in experiment [3], 500 to 1000 nM; in experiment [4], 1000 to 5000 nM.

As to `CN(Cc1ccc2c(c1F)CN(C1CCC(=O)NC1=O)C2=O)C1CCN(c2ccc(Nc3ncc4nc(Nc5ccccc5)n(C5CCCC5)c4n3)cc2)CC1` (stereo not shown) [GT-03858, 3-(5-(((1-(4-((9-cyclopentyl-8-(phenylamino)-9H-purin-2-yl)amino)phenyl)piperidin-4-yl)(methyl)amino)methyl)-4-fluoro-1-oxoisoindolin-2-yl)piperidine-2,6-dione], the “IC50 for inhibiting the proliferation of tumor cells, H1975” value in experiment [4] (96 h) is “A+”.

On to `COc1cc(N2CCC(N(C)Cc3ccc4c(c3)CN(C3CCC(=O)NC3=O)C4=O)CC2)c(C)cc1Nc1ncc(Br)c(Nc2ccc3nccnc3c2P(C)(C)=O)n1` (stereo not shown) [GT-03924, 3-(5-(((1-(4-((5-bromo-4-((5-(dimethylphosphoryl)quinoxalin-6-yl)amino)pyrimidin-2-yl)amino)-5-methoxy-2-methylphenyl)piperidin-4-yl)(methyl)amino)methyl)-1-oxoisoindolin-2-yl)piperidine-2,6-dione], for which the “IC50 for inhibiting the proliferation of tumor cells, H1975” value in experiment [4] (96 h) is given as “A+”. Also, the “IC50 for inhibiting the proliferation of tumor cells, CAL-62” value in experiment [7] is “A+”.

Take `COc1cc(N2CCC(N(C)Cc3ccc4c(c3F)CN(C3CCC(=O)NC3=O)C4=O)CC2)c(C)cc1Nc1ncc(Br)c(Nc2ccc3nccnc3c2P(C)(C)=O)n1` (stereo not shown) [GT-03925, 3-(5-(((1-(4-((5-bromo-4-((5-(dimethylphosphoryl)quinoxalin-6-yl)amino)pyrimidin-2-yl)amino)-5-methoxy-2-methylphenyl)piperidin-4-yl)(methyl)amino)methyl)-4-fluoro-1-oxoisoindolin-2-yl)piperidine-2,6-dione]: the “IC50 for inhibiting the proliferation of tumor cells, H1975” value in experiment [4] (96 h) is given as “A+”. Moreover, the “IC50 for inhibiting the proliferation of tumor cells, CAL-62” value in experiment [7] is reported as “A+”.

On to `COc1cc(N2CCC(N(C)Cc3cc4c(cc3F)C(=O)N(C3CCC(=O)NC3=O)C4)CC2)c(C)cc1Nc1ncc(Br)c(Nc2ccc3nccnc3c2P(C)(C)=O)n1` (stereo not shown) [GT-03926, 3-(5-(((1-(4-((5-bromo-4-((5-(dimethylphosphoryl)quinoxalin-6-yl)amino)pyrimidin-2-yl)amino)-5-methoxy-2-methylphenyl)piperidin-4-yl)(methyl)amino)methyl)-6-fluoro-1-oxoisoindolin-2-yl)piperidine-2,6-dione], for which the “IC50 for inhibiting the proliferation of tumor cells, H1975” value in experiment [4] (96 h) is on record as “A+”.

Take `COc1cc(N2CCC(N(C)Cc3cc(F)c4c(c3)CN(C3CCC(=O)NC3=O)C4=O)CC2)c(C)cc1Nc1ncc(Br)c(Nc2ccc3nccnc3c2P(C)(C)=O)n1` (stereo not shown) [GT-03927, 3-(5-(((1-(4-((5-bromo-4-((5-(dimethylphosphoryl)quinoxalin-6-yl)amino)pyrimidin-2-yl)amino)-5-methoxy-2-methylphenyl)piperidin-4-yl)(methyl)amino)methyl)-7-fluoro-1-oxoisoindolin-2-yl)piperidine-2,6-dione]: the “IC50 for inhibiting the proliferation of tumor cells, H1975” value in experiment [4] (96 h) is “A+”. Also, in experiment [7], the “IC50 for inhibiting the proliferation of tumor cells, CAL-62” value is recorded as “A+”.

`O=C1CCC(N2C(=O)c3ccc(CN4CCC(n5cc(NC(=O)c6coc(-c7ccnc(NCC(F)(F)F)c7)n6)c(C(F)F)n5)CC4)cc3C2=O)C(=O)N1` (stereo not shown) [GT-04088, N-(3-(difluoromethyl)-1-(1-((2-(2,6-dioxopiperidin-3-yl)-1,3-dioxoisoindolin-5-yl)methyl)piperidin-4-yl)-1H-pyrazol-4-yl)-2-(2-((2,2,2-trifluoroethyl)amino)pyridin-4-yl)oxazole-4-carboxamide]: the IC50 is below 50 nM in [5]; 100 to 500 nM in experiment [8]; 100 to 500 nM in [9]; below 50 nM in experiment [10]; below 50 nM in [7].

Take `O=C1CCC(N2Cc3c(CN4CCC(n5cc(NC(=O)c6coc(-c7ccnc(NCC8CC8)c7)n6)c(C(F)F)n5)CC4)cccc3C2=O)C(=O)N1` (stereo not shown) [GT-04173, 2-(2-((cyclopropylmethyl)amino)pyridin-4-yl)-N-(3-(difluoromethyl)-1-(1-((2-(2,6-dioxopiperidin-3-yl)-1-oxoisoindolin-4-yl)methyl)piperidin-4-yl)-1H-pyrazol-4-yl)oxazole-4-carboxamide]: the IC50 in [5] fell in the range of 1000 to 5000 nM; in [8], 100 to 500 nM; in [9] it was 1000 to 5000 nM; in [10], 500 to 1000 nM; in experiment [7] it was 1000 to 5000 nM.

For the compound `O=C1CCC(N2C(=O)c3ccc(CN4CCC(n5cc(NC(=O)c6coc(-c7ccnc(NCC8CC8)c7)n6)c(C(F)F)n5)CC4)cc3C2=O)C(=O)N1` (stereo not shown) [GT-04174, 2-(2-((cyclopropylmethyl)amino)pyridin-4-yl)-N-(3-(difluoromethyl)-1-(1-((2-(2,6-dioxopiperidin-3-yl)-1,3-dioxoisoindolin-5-yl)methyl)piperidin-4-yl)-1H-pyrazol-4-yl)oxazole-4-carboxamide], the IC50 in experiment [5] is below 50 nM; in experiment [8], 500 to 1000 nM; in experiment [9] it was 100 to 500 nM; in [10], 50 to 100 nM; in experiment [7], below 50 nM.

Regarding `CC(C)(O)c1cc2nc(C3CCN(Cc4cc5c(cc4F)C(=O)N(C4CCC(=O)NC4=O)C5)CC3)sc2cc1NC(=O)c1cccc(C(F)(F)F)n1` (stereo not shown) [GT-04506, N-(2-(1-((2-(2,6-dioxopiperidin-3-yl)-6-fluoro-1-oxoisoindolin-5-yl)methyl)piperidin-4-yl)-5-(2-hydroxypropan-2-yl)benzo[d]thiazol-6-yl)-6-(trifluoromethyl)picolinamide], the IC50 in [5] is 100 to 500 nM; in [8], 100 to 500 nM; in experiment [10] it was 50 to 100 nM.
